In PMC4627800, “Allelic Variation of Cytochrome P450s Drives Resistance to Bednet Insecticides in a Major Malaria Vector” (PLoS Genetics, 2015):
Read-outs that look alike come from different tables or passages of the source.

Experiments:
MALCYP6P9a = MALCYP6P9a (Anopheles funestus, UniProt B5AII6); experiment: Pyrethroid depletion (metabolism) assay with recombinant enzyme; type: biochemical; details: 20μM insecticide, 1 hour, vs -NADPH
Description: (§5) Membrane expressing recombinant CYP6P9a/-b and AgCPR, and reconstituted cytochrome b5 were added to the side of the tube and pre-incubated for 5 minutes at 30°C, with shaking at 1,200 rpm to activate the membrane. 20μM of test insecticide was then added into the final volume of 0.2ml (~2.5% v/v methanol), and reaction started by vortexing at 1,200 rpm and 30°C for 1 hour. Reactions were quenched with 0.1ml ice-cold methanol and incubated for 5 more minutes. Tubes were then centrifuged at 16,000 rpm and 4°C for 15 minutes, and 150μl of supernatant transferred into HPLC vials for analysis. Reactions were carried out in triplicates with experimental samples (+NADPH) and negative controls (-NADPH). 100μl of sample was loaded onto an isocratic mobile phase (90:10 v/v methanol to water) with a flow rate of 1ml/min, monitoring wavelength of 226nm and peaks separated with a 250mm C18 column (Acclaim 120, Dionex) on Agilent 1260 Infinity at 23°C. Enzyme activity was calculated as percentage depletion (the difference in the amount of insecticide(s) remaining in the +NADPH tubes compared with the–NADPH) and a t-test used for statistical analysis.

FANGCYP6P9a [1] = molecular target: T1, FANGCYP6P9a (Anopheles funestus, UniProt K7Z0P3); experiment: as above; type: biochemical; details: 20μM insecticide, 1 hour, vs -NADPH
Description: as §5

BENCYP6P9a [2] = molecular target: T2, BENCYP6P9a (Anopheles funestus, UniProt A0A0S1RZ75); experiment: as above; type: biochemical; details: 20μM insecticide, 1 hour, vs -NADPH
Description: as §5

UGANCYP6P9a = UGANCYP6P9a (Anopheles funestus, UniProt B5AII6); experiment: as above; type: biochemical; details: 20μM insecticide, 1 hour, vs -NADPH
Description: as §5

MALCYP6P9b [3] = molecular target: T3, MALCYP6P9b (Anopheles funestus, UniProt B5AII7); experiment: as above; type: biochemical; details: 20μM insecticide, 1 hour, vs -NADPH
Description: as §5

FANGCYP6P9b [4] = molecular target: T4, FANGCYP6P9b (Anopheles funestus, UniProt A0A0S1RZ61); experiment: as above; type: biochemical; details: 20μM insecticide, 1 hour, vs -NADPH
Description: To establish whether allelic variation in CYP6P9a and CYP6P9b impact their metabolic activities toward insecticides, pyrethroids were screened with the recombinant enzymes from these genes. […] Membrane expressing recombinant CYP6P9a/-b and AgCPR, and reconstituted cytochrome b5 were added to the side of the tube and pre-incubated for 5 minutes at 30°C, with shaking at 1,200 rpm to activate the membrane. 20μM of test insecticide was then added into the final volume of 0.2ml (~2.5% v/v methanol), and reaction started by vortexing at 1,200 rpm and 30°C for 1 hour. Reactions were quenched with 0.1ml ice-cold methanol and incubated for 5 more minutes. Tubes were then centrifuged at 16,000 rpm and 4°C for 15 minutes, and 150μl of supernatant transferred into HPLC vials for analysis. Reactions were carried out in triplicates with experimental samples (+NADPH) and negative controls (-NADPH). 100μl of sample was loaded onto an isocratic mobile phase (90:10 v/v methanol to water) with a flow rate of 1ml/min, monitoring wavelength of 226nm and peaks separated with a 250mm C18 column (Acclaim 120, Dionex) on Agilent 1260 Infinity at 23°C. Enzyme activity was calculated as percentage depletion (the difference in the amount of insecticide(s) remaining in the +NADPH tubes compared with the–NADPH) and a t-test used for statistical analysis.

BENCYP6P9b [5] = molecular target: T5, BENCYP6P9b (Anopheles funestus, UniProt A0A0S1S7Y0); experiment: as above; type: biochemical; details: 20μM insecticide, 1 hour, vs -NADPH
UGANCYP6P9b [6] = molecular target: T6, UGANCYP6P9b (Anopheles funestus, UniProt A0A0S1S7Y0); experiment: as above; type: biochemical; details: 20μM insecticide, 1 hour, vs -NADPH
UGANCYP6P9b [7] = molecular target: T6, UGANCYP6P9b; experiment: Fluorogenic probe O-dealkylation, initial testing; type: biochemical; details: UGANCYP6P9b vs UGANCYP6P9a; 1μM probe
Description: Four probes: 7-ethoxyresurofin (7-ER), 7-ethoxy-4-trifluoromethylcoumarin (7-EFC), 7-methoxy-4-trifluoromethylcoumarin (MFC) and diethoxyfluorescein (DEF) were initially tested with the various recombinant CYP6P9a and CYP6P9b proteins. In a total volume of 225μl containing ~10pmol P450, buffered with 50mM potassium phosphate buffer (KPi at pH 7.4 with 5mM MgCl2), 1μM probe substrate was added. Membranes were activated for 5 minutes at 37°C in fluorescence spectrophotometer Infinite M200 (TECAN) before 25μl NADPH regeneration buffer (1mM glucose-6-phosphate (G6P), 0.25mM MgCl2, 0.1mM NADP and 1U/ml glucose-6-phosphate dehydrogenase (G6PDH) prepared in KPi pH 7.4) was added. All reactions were conducted in three replicates with negative control (–NADPH) devoid of the regeneration buffer. […]. Results were analysed using Magellan v6.2 software.

CYP1A2 Glu^318Asp = system: CYP1A2 Glu^318Asp; design: method as in PMID 7910007; details: human CYP1A2 ref [37]; cited from earlier work
CYP6P9a/CYP6P9b = experiment: in vitro; type: biochemical, Anopheles funestus; details: inhibition of DEF dealkylation; MALCYP6P9a, BENCYP6P9a, MALCYP6P9b, UGANCYP6P9b; DDT value for all proteins excepting UGANCYP6P9b
Description: (§1) To further assess differences in the degree of binding of the various recombinant proteins to insecticides from different classes, inhibition assay was conducted with DEF and ten insecticides (inhibitors). The potent P450s inhibitor miconazole was utilised as a positive control inhibitor. IC50 determination was conducted as described in previous studies. […]. The 96 well-plate was pre-incubated for 5 minutes at 37°C and then 25μl regeneration buffer (7.8mg glucose-6-phosphate (G6P), 0.25mM MgCl2, 1.7mg NADP, 6U/ml glucose-6-phosphate dehydrogenase and 2% w/v NaHCO3) incorporated. Fluorescence was monitored for 21 cycles at interval of 1 minute with shaking at every step. Results were analysed using Magellan v6.2 software and inhibition at each inhibitor concentration and incubation time calculated as residual control activity towards DEF.

UGANCYP6P9b [8] = molecular target: T6, UGANCYP6P9b; experiment: Inhibition of DEF dealkylation by insecticides (IC50); type: biochemical; details: compared with averagely 10μM for the other proteins
Description: as §1

[9] = system: CYP6P9a/CYP6P9b (MALCYP6P9a, BENCYP6P9a, MALCYP6P9b, UGANCYP6P9b); experiment: in vitro; type: biochemical, Anopheles funestus; details: Anopheles funestus, pH 7.4, inhibition of DEF dealkylation, DDT value for all proteins excepting UGANCYP6P9b
Description: as §1

CYP6Z2 = details: cited from earlier work
CYP6Z8 = system: CYP6Z8; design: method as in ref [8] (S1 Text); details: cited from earlier work; for Kcat: Ae. aegypti CYP6Z8 ref [8] (S1 Text)
BENCYP6P9a [10] = molecular target: T2, BENCYP6P9a; experiment: Steady-state kinetics of pyrethroid metabolism; type: biochemical
Description: (§2) Reactions were performed in triplicates both for +NADPH (experimental tubes) and–NADPH (negative control). K m and V max were established from the plot of substrate concentrations against the initial velocities and fitting of the data to the Michaelis-Menten module using the least squares non-linear regression, as described in the GraphPad Prism 6.03 Software (GraphPad Inc., La Jolla, CA, USA).

BENCYP6P9b [11] = molecular target: T5, BENCYP6P9b; experiment: Steady-state kinetics of pyrethroid metabolism; type: biochemical
Description: as §2

MALCYP6P9b [12] = molecular target: T3, MALCYP6P9b; experiment: Steady-state kinetics of pyrethroid metabolism; type: biochemical
Description: as §2

UGANCYP6P9b [13] = molecular target: T6, UGANCYP6P9b; experiment: Steady-state kinetics of pyrethroid metabolism; type: biochemical
Description: as §2

FANGCYP6P9a [14] = molecular target: T1, FANGCYP6P9a
Description: as §2

FANGCYP6P9b [15] = molecular target: T4, FANGCYP6P9b
Description: as §2

[16] = system: transgenic flies over-expressing FANGCYP6P9a; details: 0.15% deltamethrin paper, 3 hrs
Description: (§3) Primers used for this PCR are given in S8 Table. PCR conditions, cloning techniques, construction of transgenic flies and expression of candidate genes was conducted as described in previous studies, with more details provided in S1 Text. For control group, flies with the same background as the UAS transgenic lines but devoid of the UAS construct with the candidate gene were crossed with the driver Actin5C-GAL4 line to generate Actin5C-GAL4-null flies.
(§4) These papers were then rolled and introduced into 45 cc plastic vials. The vials were then plugged with cotton wool soaked in 5% sucrose. 20–25 (2–4 days old, post-eclosion F1 females) were selected for the bioassays and introduced into the vials. Mortality plus knockdown was scored after 1 hr, 2 hrs, 3 hrs, 6 hrs, 12 hrs and 24 hrs post-exposure to the discriminating dose of the insecticides.

[17] = system: transgenic flies over-expressing FANGCYP6P9b; details: 0.15% deltamethrin paper
Description: as §3, §4

[18] = system: transgenic flies over-expressing MALCYP6P9a; details: 0.15% deltamethrin paper, 3 hrs
Description: as §3, §4

[19] = system: transgenic flies over-expressing MALCYP6P9b; details: 0.15% deltamethrin paper
Description: as §3, §4

CYP6M2 = system: CYP6M2; design: method as in ref [5] (S1 Text); details: An. gambiae CYP6M2 ref [5] (S1 Text); cited from earlier work

## Cc1c(COC(=O)[C@@H]2[C@H](/C=C(\Cl)C(F)(F)F)C2(C)C)cccc1-c1ccccc1 (racemic) [bifenthrin]
MALCYP6P9a
  Percentage depletion: 60.48±2.65 %
FANGCYP6P9a [1]
  Percentage depletion: 16.6±5.41%
BENCYP6P9a [2]
  Percentage depletion: 51.02±0.75 %
UGANCYP6P9a
  Percentage depletion: 50.31±3.8 %
MALCYP6P9b [3]
  Percentage depletion: more than 80%
MALCYP6P9b [3]; listed as Bifenthrin
  Percentage depletion: 81.6±0.25 %
FANGCYP6P9b [4]
  Percentage depletion: 22.38±5.08%
BENCYP6P9b [5]
  Percentage depletion: 89.19±1.01 %
UGANCYP6P9b [6]
  Percentage depletion: 88.8±1.61 %

## CC1(C)[C@H](C(=O)O[C@H](C#N)c2cccc(Oc3ccccc3)c2)[C@@H]1/C=C(\Cl)C(F)(F)F (racemic) [λ-cyhalothrin]
MALCYP6P9a
  Percentage depletion: 75.41±1.72%
FANGCYP6P9a [1]
  Percentage depletion: 15.46±4.43%
BENCYP6P9a [2]
  Percentage depletion: 52.45±1.74 %
UGANCYP6P9a
  Percentage depletion: 47.74±1.5%
FANGCYP6P9b [4]
  Percentage depletion: 15.49±3.13%
BENCYP6P9b [5]
  Percentage depletion: 49.35±4.41 %
UGANCYP6P9b [6]
  Percentage depletion: 78.76±1.31 %

## CCOc1ccc2c(C(F)(F)F)cc(=O)oc2c1 [7-EFC, 7-ethoxy-4-trifluoromethylcoumarin]
UGANCYP6P9b [7]
  O-dealkylation activity, fold of UGANCYP6P9a: 17.9 fold

## CCOc1ccc2ccc(=O)oc2c1 [7-ethoxycoumarin]
CYP1A2 Glu^318Asp
  increase of Kcat of O-dealkylation by Glu^318Asp substitution: 13 fold

## Clc1ccc(C(c2ccc(Cl)cc2)C(Cl)(Cl)Cl)cc1 [DDT]
CYP6P9a/CYP6P9b
  IC50: ~10 µM
UGANCYP6P9b [8]
  IC50: much higher value

## CNC(=O)Oc1cccc2c1OC(C)(C)O2 [bendiocarb]
[9]
  IC50: > 25 µM

## O=c1ccc2nc3ccc(OCc4ccccc4)cc3oc-2c1 [benzyloxyresorufin]
CYP6Z2; An. gambiae CYP6Z2-mediated de-benzylation ref [7] (S1 Text)
  Km: ~0.13 µM
CYP6Z2; An. gambiae CYP6Z2 ref [7] (S1 Text)
  Kcat: ~ 1.5 min^-1
CYP6Z8
  Kcat: 0.00162 s⁻¹
CYP6Z8; Aedes aegypti CYP6Z8-mediated de-benzylation ref [8] (S1 Text)
  Km: ~0.13 µM

## CC1(C)[C@H](C(=O)O[C@H](C#N)c2cccc(Oc3ccccc3)c2)[C@@H]1C=C(Br)Br [deltamethrin]
MALCYP6P9a
  Percentage depletion: 68.38±1.83 %
FANGCYP6P9a [1]
  Percentage depletion: 18.11±2.15%
BENCYP6P9a [2]
  Percentage depletion: 59.54±5.11 %
UGANCYP6P9a
  Percentage depletion: 57.9±2.74 %
MALCYP6P9b [3]
  Percentage depletion: more than 80%
MALCYP6P9b [3]; listed as Deltamethrin
  Percentage depletion: 81.69±2.27 %
FANGCYP6P9b [4]
  Percentage depletion: 6.2±1.5%
BENCYP6P9b [5]
  Percentage depletion: 62.03±1.14 %
UGANCYP6P9b [6]
  Percentage depletion: 62.53±4.04 %
BENCYP6P9a [10]
  Kcat: 8.78±2.62^a min^-1
BENCYP6P9b [11]
  Kcat: 13.63±5.40^b min^-1
MALCYP6P9b [12]
  Kcat: 12.09±1.44^b min^-1
  Km: 9.9 ± 1.65 µM
UGANCYP6P9b [13]
  Kcat: 10.44±4.00^b min^-1
FANGCYP6P9a [14]
  Kcat: 0.0812 ± 0.0343 s⁻¹
FANGCYP6P9b [15]
  Kcat: 0.082 ± 0.0137 s⁻¹
  Km: 19.5 ± 5.53 µM
[16]
  mortality: 52%
[17]; 1 hr
  mortality: 20%
[17]; 2 hrs
  mortality: 53%
[17]; 3 hrs
  mortality: 62%
[17]; 6 hrs
  mortality: 70%
[17]; 12 hrs
  mortality: 81%
[17]; 24 hrs
  mortality: 93%
[18]
  mortality: < 30%
[19]; 1 hr
  mortality: 1.5%
[19]; 2 hrs
  mortality: 7.5%
[19]; 3 hrs
  mortality: 12.5%
[19]; 6 hrs
  mortality: 16%
[19]; 12 hrs
  mortality: 21%
[19]; 24 hrs
  mortality: 41%
CYP6M2
  Km: 2 µM

## CCOc1ccc2nc3ccc(=O)cc-3oc2c1 [ethoxyresorufin]
CYP6Z8
  Kcat: 0.0198 s⁻¹

## CCOc1ccc(C(C)(C)COCc2cccc(Oc3ccccc3)c2)cc1 [etofenprox]
MALCYP6P9a
  Percentage depletion: 46.04±1.26 %
FANGCYP6P9a [1]
  Percentage depletion: 7.28±1.53%
BENCYP6P9a [2]
  Percentage depletion: 41.22±1.54 %
UGANCYP6P9a
  Percentage depletion: 42.55±1.03 %
MALCYP6P9b [3]
  Percentage depletion: 71.59±1.42 %
FANGCYP6P9b [4]
  Percentage depletion: 16.88±3.06%
BENCYP6P9b [5]
  Percentage depletion: 37.15±4.15 %
UGANCYP6P9b [6]
  Percentage depletion: 57.91±1.55 %

## CNC(=O)Oc1ccccc1OC(C)C [propoxur]
[9]
  IC50: > 25 µM
